Experimental data as given in ChEMBL document CHEMBL5614376, “Discovery of MT-1207: A Novel, Potent Multitarget Inhibitor as a Promising Clinical Candidate for the Treatment of Hypertension” (J Med Chem, 2024).

Tests used:
[1] = Plasma protein binding in Cynomolgus monkey at 0.1 uM incubated for 30 mins; type: ADME, cell-free, Macaca fascicularis; conditions: read-out: PPB (converted)
[2] = system: Rattus norvegicus; test: Effect on postural hypotension in Sprague-Dawley rat assessed as change in systolic blood pressure at 2.5 mg/kg, po treated for >30 mins followed by induction of postural hypotension measured 3 secs after postural change (reference value: 124 +/- 10 mmHg); type: functional; conditions: time > 30.05 min, 0.5008 h
[3] = Oral bioavailability in Sprague-Dawley rat at 3 mg/kg measured for 24 hrs by UPLC/MS/MS analysis; type: ADME, organism-based; conditions: in vivo
[4] = AUC (0 to t) in female Sprague-Dawley rat at 10 mg/kg, po qd treated for 13 weeks consecutively measured after recovery period on day 91 by UP/LC/MS/MS analysis; type: ADME, organism-based; conditions: in vivo, time 91 day
[5] = system: Rattus norvegicus; test: Effect on postural hypotension in Sprague-Dawley rat assessed as change in systolic blood pressure at 10 mg/kg, po treated for >30 mins followed by induction of postural hypotension measured 40 secs after postural change (reference value: 128 +/- 11 mmHg); type: functional; conditions: time > 30.67 min, 0.5112 h
[6] = system: Rattus norvegicus; test: Effect on postural hypotension in Sprague-Dawley rat assessed as change in systolic blood pressure at 5 mg/kg, po treated for >30 mins followed by induction of postural hypotension measured 40 secs after postural change (reference value: 128 +/- 11 mmHg); type: functional; conditions: time > 30.67 min, 0.5112 h
[7] = Cmax in male Sprague-Dawley rat at 100 mg/kg, po qd treated for 13 weeks consecutively measured after recovery period on day 91 by UP/LC/MS/MS analysis; type: ADME, organism-based; conditions: in vivo, time 91 day
[8] = Acute toxicity in Sprague-Dawley rat with single oral administration measured for 14 days; conditions: in vivo, time 14 day
[9] = system: Rattus norvegicus; test: Effect on postural hypotension in Sprague-Dawley rat assessed as change in systolic blood pressure at 5 mg/kg, po treated for >30 mins followed by induction of postural hypotension measured immediately after postural change (reference value: 131 +/- 9 mmHg); type: functional; conditions: 0.5 h
[10] = Tmax in male Sprague-Dawley rat at 30 mg/kg, po measured on day 1 by UP/LC/MS/MS analysis; type: ADME, organism-based; conditions: in vivo, time 1 day
[11] = Metabolic stability in Beagle dog liver microsomes assessed as drug metabolism at 10 umol/L incubated upto 120 mins in presence of NADPH by LC-MS/MS analysis; type: ADME, Canis lupus familiaris, Microsome; conditions: 2 h, 10 µM, dose 10 µmol/L
[12] = system: Rattus norvegicus; test: Effect on postural hypotension in Sprague-Dawley rat assessed as change in systolic blood pressure at 10 mg/kg, po treated for >30 mins followed by induction of postural hypotension measured immediately after postural change (reference value: 131 +/- 9 mmHg); type: functional; conditions: 0.5 h
[13] = Tmax in female Sprague-Dawley rat at 100 mg/kg, po measured on day 1 by UP/LC/MS/MS analysis; type: ADME, organism-based; conditions: in vivo, time 1 day
[14] = system: Rattus norvegicus; test: Effect on postural hypotension in Sprague-Dawley rat assessed as change in systolic blood pressure at 2.5 mg/kg, po treated for >30 mins followed by induction of postural hypotension measured 20 secs after postural change (reference value: 129 +/- 11 mmHg); type: functional; conditions: time > 30.33 min, 0.5055 h
[15] = Toxicity in Sprague-Dawley rat assessed as unplanned animal mortality at 10 to 100 mg/kg, po qd treated for 13 weeks consecutively measured after 4 week recovery period; type: organism-based; conditions: in vivo, 2856 h, dose 10-100 mg/kg, time 17 weeks
[16] = Half life in Sprague-Dawley rat at 1 mg/kg, iv measured for 24 hrs by UPLC/MS/MS analysis; type: ADME, organism-based; conditions: in vivo
[17] = system: Rattus norvegicus; test: Effect on postural hypotension in Sprague-Dawley rat assessed as change in systolic blood pressure at 2.5 mg/kg, po treated for >30 mins followed by induction of postural hypotension measured 10 secs after postural change (reference value: 127 +/- 12 mmHg); type: functional; conditions: time > 30.17 min, 0.5028 h
[18] = Tmax in female Sprague-Dawley rat at 100 mg/kg, po qd treated for 13 weeks consecutively measured after recovery period on day 91 by UP/LC/MS/MS analysis; type: ADME, organism-based; conditions: in vivo, time 91 day
[19] = Apparent oral clearance in Sprague-Dawley rat at 9 mg/kg, po measured for 24 hrs by UPLC/MS/MS analysis; type: ADME, organism-based; conditions: in vivo
[20] = Toxicity in Sprague-Dawley rat assessed as notable drug-related change at 10 to 100 mg/kg, po qd treated for 13 weeks consecutively measured after 4 week recovery period; type: organism-based; conditions: in vivo, 2856 h, dose 10-100 mg/kg, time 17 weeks
[21] = Metabolic stability in rat plasma assessed as enzymatic hydrolysis at 50 to 10000 ng/ml incubated upto 120 mins; type: ADME, cell-free; conditions: 2 h, dose 50-10000 ng/ml
[22] = AUC (0 to t) in female Sprague-Dawley rat at 30 mg/kg, po measured on day 1 by UP/LC/MS/MS analysis; type: ADME, organism-based; conditions: in vivo, time 1 day
[23] = Tmax in Sprague-Dawley rat at 3 mg/kg, po measured for 24 hrs by UPLC/MS/MS analysis; type: ADME, organism-based; conditions: in vivo
[24] = Tmax in Sprague-Dawley rat at 1 mg/kg, po measured for 24 hrs by UPLC/MS/MS analysis; type: ADME, organism-based; conditions: in vivo
[25] = Plasma protein binding in Beagle dog at 10 uM incubated for 30 mins; type: ADME, cell-free, Canis lupus familiaris; conditions: read-out: PPB (converted)
[26] = system: Rattus norvegicus; test: Effect on postural hypotension in Sprague-Dawley rat assessed as change in systolic blood pressure at 5 mg/kg, po treated for >30 mins followed by induction of postural hypotension measured 60 secs after postural change (reference value: 127 +/- 10 mmHg); type: functional; conditions: time > 31 min
[27] = Metabolic stability in human plasma assessed as enzymatic hydrolysis at 50 to 10000 ng/ml incubated upto 120 mins; type: ADME, cell-free; conditions: 2 h, dose 50-10000 ng/ml
[28] = Apparent oral clearance in Sprague-Dawley rat at 3 mg/kg, po measured for 24 hrs by UPLC/MS/MS analysis; type: ADME, organism-based; conditions: in vivo
[29] = system: Rattus norvegicus; test: Effect on postural hypotension in Sprague-Dawley rat assessed as change in systolic blood pressure at 5 mg/kg, po treated for >30 mins followed by induction of postural hypotension measured 20 secs after postural change (reference value: 129 +/- 11 mmHg); type: functional; conditions: time > 30.33 min, 0.5055 h
[30] = AUC (0 to t) in female Sprague-Dawley rat at 100 mg/kg, po qd treated for 13 weeks consecutively measured after recovery period on day 91 by UP/LC/MS/MS analysis; type: ADME, organism-based; conditions: in vivo, time 91 day
[31] = Metabolic stability in rat liver microsomes assessed as drug metabolism at 10 umol/L incubated upto 120 mins in presence of NADPH by LC-MS/MS analysis; type: ADME, Microsome; conditions: 2 h, 10 µM, dose 10 µmol/L
[32] = Cmax in male Sprague-Dawley rat at 30 mg/kg, po qd treated for 13 weeks consecutively measured after recovery period on day 91 by UP/LC/MS/MS analysis; type: ADME, organism-based; conditions: in vivo, time 91 day
[33] = Cmax in female Sprague-Dawley rat at 100 mg/kg, po qd treated for 13 weeks consecutively measured after recovery period on day 91 by UP/LC/MS/MS analysis; type: ADME, organism-based; conditions: in vivo, time 91 day
[34] = Plasma protein binding in Beagle dog at 0.1 uM incubated for 30 mins; type: ADME, cell-free, Canis lupus familiaris; conditions: read-out: PPB (converted)
[35] = Metabolic stability in macaque liver microsomes assessed as drug elimination at 10 umol/L incubated for 5 mins in presence of NADPH by LC-MS/MS analysis; type: ADME, Microsome; conditions: macaca, 10 µM, dose 10 µmol/L

Compound `Cl.c1ccc2c(c1)nnn2CCCCN1CCN(c2nsc3ccccc23)CC1` has a fraction unbound at 0.5 h, 0.1 µM [1] of 0.015, an Activity [2] of 90 mmHg and a bioavailability [3] of 31.9%. For the same compound, the AUC(0-t) at 2184 h [4] was 439 ng·h/mL, the Activity [5] was 85 mmHg and the Activity [6] was 83 mmHg. It also gave a Cmax [7] of 538 ng/mL, an MTD at 336 h [8] of over 1000 mg/kg and an Activity [9] of 89 mmHg. The Tmax [10] was 1 h, the Drug metabolism [11] was “Metabolite_Detected” and the Activity [12] was 89 mmHg. The Tmax [13] was 2 h, the Activity [14] was 91 mmHg and the Activity [15] was “Non-Toxic”. The half-life [16] was 1.3 h, the Activity [17] was 89 mmHg and the Tmax [18] was 2.5 h. The CL/F [19] was 587 mL/min, the Activity [20] was “Non-Toxic” and the Stability [21] was “Stable”. The AUC(0-t) at 24 h [22] was 1440 ng·h/mL, the Tmax [23] was 2 h and the Tmax [24] was 9.6 min. For the same compound, the fraction unbound at 0.5 h, 10 µM [25] was 0.007, the Activity [26] was 83 mmHg and the Stability [27] was “Stable”. For the same compound, the CL/F [28] was 130 mL/min, the Activity [29] was 83 mmHg and the AUC(0-t) at 2184 h [30] was 7450 ng·h/mL. For the same compound, the Drug metabolism [31] was “Metabolite_Detected”, the Cmax [32] was 238 ng/mL and the Cmax [33] was 745 ng/mL. The fraction unbound at 0.5 h, 0.1 µM [34] was 0.012 and the Drug excretion [35] was “Active”.
